Source: patent US20250099609A1 (priority 2023, published 2025)

Experiments:
[1] = in vivo; cited from earlier work
bone = settings: literature refs 15 and 19; cited from earlier work
[2] = tested on: post-menopausal osteoporosis; assay: Post-menopausal osteoporosis in animals; format: in vivo
Excerpt: The above embodiments also relate to the field of medicine for an article of manufacture delivering a prophylactic and therapeutic tissue strategy for osteoporosis. The remarkable increase in average life expectancy during the 20th century ranks as one of society's greatest achievements. As a result, the world's elderly population (aged ≥65 years) continues to grow at an unprecedented rate. As the proportion of the oldest-old (aged >85 years) and length of life expectancy increases, a rise in age-related degenerating diseases, disability, and prolonged dependency is projected. Age-related bone loss and osteoporosis is inevitable in both men and women, and can lead to fragility fractures, immobility, and disability. Currently, bisphosphonate treatment and weight-bearing exercise are commonly used therapeutic approaches, but both with limited long-term success.

mesenchymal stem cells = assay: Alkaline phosphatase (ALP) assay after radiation; format: cell-based; settings: treatment 24 h or 48 h after ionizing radiation
Excerpt: FIGS. 6A-B show results of an alkaline phosphatase (ALP) assay. The micrographs show assessed bone formation after treatment with P7C3, with cerium oxide nanoparticles (CNPs), or with a combination of P7C3 and CNPs.

stem cells [3] = assay: Bone mineral formation / new bone deposition after radiation (Alizarin red); format: cell-based; settings: 14 days of culture; treatment 24 h or 48 h after radiation (7 Gy)
Method: Radiation reduces the ability of bone cells to produce bone. […] This is further confirmed when the cells are cultured over a longer period of 28 days.
The data showing assessed bone formation was supported by quantification of new bone deposition.
(**** p<0.000) The synergistic effect continues when treatment is administered more than 24 hours after radiation exposure.

[4] = tested on: primary and metastatic cancer cell; assay: Primary and metastatic cancer cell growth; format: cell-based; settings: at therapeutic levels
Excerpt: This invention combines these two unique approaches as a bi-modal and multifunctional chimeric nanostrategy to combat against ionizing radiation-induced damage.

osteoclasts = assay: Osteoclast maturation (DAPI/Phalloidin staining); format: cell-based; settings: without radiation
Method: This treatment was carried out without exposing the osteoclasts to radiation.

stem cells [5] = assay: Stem cell conversion to fat cells after radiation; format: cell-based; settings: after exposure to radiation (IR 21d)
Method: All treatment was administered with radiation (IR 21d).
Radiation exposure, post-menopausal osteoporosis, and diabetes are conditions that cause stem cells to favor conversion to fat cells instead of conversion to bone cells. This process progresses to tissue dysfunction. Stem cells were treated with P7C3 or with cerium oxide nanoparticles (CNPs) after exposure to radiation. […] All treatment was administered with radiation (IR 21d).

OC(CNc1ccccc1)Cn1c2ccc(Br)cc2c2cc(Br)ccc21 (centres unmarked) [P7C3, aminopropyl carbazole]
oral bioavailability [1]: high oral bioavailability | countermeasure against ionizing radiation-induced bone damage and/or bone loss (bone): effective countermeasure | progression of post-menopausal osteoporosis [2]: reduces the progression | alkaline phosphatase expression / conversion of stem cells to osteoblasts (mesenchymal stem cells): limited upregulation | new bone deposition (micrographs) (stem cells [3]): does not substantially increase new bone deposition | primary and metastatic cancer cell growth [4]: significantly reduces | maturation of osteoclasts (osteoclasts): stops the maturation of osteoclasts | fat formation from stem cells (stem cells [5]): inhibit fat formation
